The text below walks through data of patent US20230181580A1, “TREATMENT OF PROLIFERATIVE DISEASES OF THE CNS” (AUCENTRA THERAPEUTICS PTY LTD, priority 2020, published 2023).

What is called GI50 is the concentration that inhibits growth by half. What is called T/C is the result in the treated group divided by that in the control group, in per cent.

Data set [1] concerns H460. Description: MTT proliferation assay, lung. In kind it is cell-based. The settings on record: Homo sapiens, NCI-H460, 72 h, read-out: Antiproliferative activity GI50 H460. From the text: (§1) Representative compounds from Example 1, were subjected to standard MTT (3-(4,5-dimethylthiazol-2-yl)-2,5-diphenyltetrazolium bromide) and resazurin assays on solid tumour cell lines (including GBM cell lines) and leukemia cell lines, respectively, as previously reported (Wang S et al., J Med Chem 47:1662-1675, 2004; and Diab S. et al. CheMedChem 9:962-972, 2014).
(In general: Tetrazolium dyes change colour on reduction, which living cells bring about.)

Data set [2] deals with MB453. The experiment in a line: MTT proliferation assay, breast. The class given is cell-based. The following applies: 72 h, read-out: Antiproliferative activity GI50 MB453.
Excerpt: as §1

For data set [3], the system named is GBM U87 cells. The experiment in a line: Annexin V/PI apoptosis assay. In kind it is cell-based. The following applies: 5 μM, 48 hours, with or without 5 μM TMZ. On the procedure: The ability of compound 1 to induce apoptosis in GBM cells was investigated using the annexin V-FITC apoptosis detection kit I (BD Pharmingen Inc.; San Diego, Calif., United States of America) according to the manufacturer's protocol. Cell pellets were washed twice with 1 mL cold PBS and centrifuged at 300×g for 5 mins. Following the removal of supernatants, cell pellets were stained with 100 μL 1× annexin V binding buffer, 3 μL annexin V-FITC and 3 μL propidium iodide staining solution, and incubated in the dark at room temperature for 15 mins. The percentage of apoptic cells was measured by a CytoFLEX flow cytometer.

For data set [4], the system named is U87 GBM cells. Description: Subcutaneous U87 GBM xenograft, single agents. The class given is in vivo. From the text: Compound 1 and compound 2 were also investigated for in vivo antitumour activity in subcutaneous xenograft models. Briefly, U87 GBM cells were harvested and resuspended in a 1:1 mixture of serum-free media and matrigel, and 5×10^6 cells injected subcutaneously into the rear flank of 5-6-week-old CD1 nu/nu female mice. When the mean tumour volume reached 150-200 mm^3, animals were randomised to treatment groups (n=10 per group) and treated orally with vehicle (0.5% carboxymethyl cellulose in water), compound 1 or compound 2 daily for 21 days with the doses shown in FIGS. 5A and 5B. Mice were observed daily for signs of toxicity and weight loss, and tumour volume measured every other day.

Data set [5] relates to U87. The experiment in a line: MTT proliferation assay, glioblastoma. The class given is cell-based. The settings on record: Homo sapiens, U-87 MG, 72 h, read-out: Antiproliferative activity GI50 U87. On the procedure: (§2) All three GBM cell lines used in this example, namely U87, U251 and T98G, were cultured in Eagle's Minimum Essential Medium (EMEM) with 10% fetal bovine serum in 75 cm^2 flasks at 37° C. and 5% CO2. All cell lines were confirmed to be mycoplasma-free prior to any experiment setup.
as §1

In data set [6] the test system is U251. Description: MTT proliferation assay, glioblastoma. The class given is cell-based. The settings on record: Homo sapiens, U-251, 72 h, read-out: Antiproliferative activity GI50 U251. On the procedure: as §2, §1
In data set [7] the test system is T98G. Description: MTT proliferation assay, glioblastoma. In kind it is cell-based. The following applies: Homo sapiens, 72 h, read-out: Antiproliferative activity GI50 T98G. On the procedure: as §2, §1
Data set [8] relates to GBM patient-derived G4T cells. Description: Orthotopic GBM patient-derived G4T xenograft. The class given is in vivo, NSG mice. The following applies: single agent or with TMZ; p<0.001. On the procedure: In a separate study, NSG mice (n=8) orthotopically engrafted with GBM patient-derived G4T cells were administered with vehicle, compound 1, TMZ, and co-treatment of compound 1 and TMZ, respectively, as shown in FIG. 6B. The disease burden of each of the treatment groups was measured by bioluminescent whole-body imaging.
A general note: Xenograft models place foreign cells or tissue in a host animal.

For the molecule `CNc1nc(C)c(-c2nc(Nc3ccc(N4CCC(N(C)C)CC4)cn3)ncc2F)s1` [Compound 1, 5-(2-((5-(4-(dimethylamino)piperidin-1-yl)pyridin-2-yl)amino)-5-fluoropyrimidin-4-yl)-N,4-dimethylthiazol-2-amine], the GI50 came out at 3.28 µM in data set [1]; 0.33 µM in data set [2]; 4.46 µM in data set [5]; 5.52 µM in data set [6]; 2.96 µM in data set [7]. In addition, in data set [3], the “induction of apoptosis (annexin V/PI)” value is on record as “capable of inducing apoptosis in GBM cells to a greater level than the control anti-cancer agent, palbociclib”. This molecule returned a T/C in data set [4] (day 21, oral daily for 21 days, vs vehicle, p<0.001) of 310%. Besides, the “tumour growth compared to vehicle treatment” value in data set [4] (oral daily for 21 days) is given as “markedly reduced tumour growth”. Further, the toxicity result in data set [4] (oral daily for 21 days, observed daily for signs of toxicity and weight loss) was “without any overt toxicity”. The “inhibition of tumour growth (bioluminescent imaging)” value in data set [8] is reported as “significant inhibition of tumour growth either as a single agent or in combination with TMZ”.
